In brackets after ≈: the same amount, converted by molar mass. Several values for one entry are separate records, joined by “and”; a condition that tells them apart may be missing. Equal values may be shown once. Blank lines part the entries; values can stand above or below the compound they belong to.
Experiments:
Assay in all cases: ≥ marks a high value that may be exact or a test limit, other limits are often not marked, values filed in µg/mL are converted to µM
[1] = system: Escherichia coli KCTC 1682
[2] = system: Bacillus subtilis KCTC 3068
[3] = system: Staphylococcus epidermidis KCTC 1917
[4] = system: Staphylococcus aureus KCTC 1621
[5] = system: Salmonella typhimurium KCTC 1926
[6] = system: Pseudomonas aeruginosa KCTC 1637
Escherichia coli = system: Escherichia coli
Bacillus cereus = system: Bacillus cereus
Bacillus subtilis = system: Bacillus subtilis
[7] = system: Klebsiella pneumoniae ATCC 13883
[8] = system: Pseudomonas aeruginosa ATCC 27853
[9] = system: Enterococcus faecalis ATCC 29212
[10] = system: Staphylococcus aureus ATCC 25923
[11] = system: Salmonella enterica subsp. enterica serovar Typhimurium ATCC 14028
[12] = system: Escherichia coli DH5alpha
[13] = system: Escherichia coli ATCC 25922
[14] = system: Acinetobacter baumannii ATCC 19606
[15] = system: Pseudomonas aeruginosa PAO1
Pseudomonas aeruginosa = system: Pseudomonas aeruginosa
Acinetobacter baumannii = system: Acinetobacter baumannii
Staphylococcus aureus = system: Staphylococcus aureus
Klebsiella pneumoniae = system: Klebsiella pneumoniae
[16] = system: Pseudomonas aeruginosa CMCCB 10104
[17] = system: Candida albicans ATCC 2002

- MIC [1]: 2.79 µM (≈ 5 µg/mL)
- MIC [2]: 5.58 µM (≈ 9.99 µg/mL)
- MIC [3]: 2.79 µM (≈ 5 µg/mL)
- MIC [4]: 2.79 µM (≈ 5 µg/mL)
- MIC [5]: 2.79 µM (≈ 5 µg/mL)
- MIC [6]: 22.3 µM (≈ 40 µg/mL)
Compound: CC[C@H](C)[C@H](N)C(=O)N[C@@H](CC(C)C)C(=O)N1CCC[C@H]1C(=O)N[C@@H](Cc1c[nH]c2ccccc12)C(=O)N[C@@H](CCCCN)C(=O)N[C@@H](Cc1c[nH]c2ccccc12)C(=O)N1CCC[C@H]1C(=O)N[C@@H](CCCCN)C(=O)N[C@@H](CCCCN)C(=O)N1CCC[C@H]1C(=O)N[C@@H](Cc1c[nH]c2ccccc12)C(=O)N[C@@H](CCCN=C(N)N)C(=O)N[C@@H](CCCN=C(N)N)C(N)=O [ILPWKWPKKPWRR]

- MIC (Escherichia coli): > 121 µM
- MIC (Bacillus cereus): ≥ 121 µM
Compound: CC[C@H](C)[C@H](NC(=O)[C@@H](NC(=O)[C@@H](NC(=O)[C@@H](NC(=O)[C@H](CCCN=C(N)N)NC(=O)[C@H](CCCCN)NC(=O)[C@@H](NC(=O)CNC(=O)[C@@H]1CCCN1C(=O)[C@@H](NC(=O)[C@H](CO)NC(=O)[C@H](Cc1ccccc1)NC(=O)[C@@H](NC(=O)CNC(=O)[C@H](C)NC(=O)[C@H](CC(C)C)NC(=O)[C@@H]1CCCN1C(=O)[C@H](Cc1ccccc1)NC(=O)[C@H](CCCCN)NC(=O)[C@@H](N)CO)[C@@H](C)CC)C(C)C)C(C)C)C(C)C)C(C)C)C(C)C)C(=O)O [SKFPLAGIFSVPGVKRVVVI]

- MIC (Escherichia coli): > 59.4 µM
- MIC (Bacillus cereus): ≥ 59.4 µM
Compound: CC[C@H](C)[C@H](NC(=O)[C@H](Cc1ccccc1)NC(=O)[C@H](CCCCN)NC(=O)[C@H](C)NC(=O)[C@H](CC(C)C)NC(=O)[C@H](CC(=O)O)NC(=O)[C@H](CCCCN)NC(=O)[C@@H](N)C(C)C)C(=O)N[C@@H](C)C(=O)N[C@@H](CCCCN)C(=O)N[C@H](C(=O)N[C@H](C(=O)N[C@@H](C)C(=O)N[C@@H](CCCCN)C(=O)N[C@@H](CCC(N)=O)C(=O)NCC(=O)NCC(=O)N[C@@H](CS)C(=O)N[C@@H](Cc1ccc(O)cc1)C(=O)N[C@@H](CC(C)C)C(=O)O)C(C)C)[C@@H](C)O [VKDLAKFIAKTVAKQGGCYL]

- MIC (Bacillus subtilis): 8 µM (≈ 18.9 µg/mL)
- MIC [7]: 8 µM (≈ 18.9 µg/mL)
- MIC [8]: 45 µM (≈ 106 µg/mL)
- MIC [9]: 32 µM (≈ 75.7 µg/mL)
- MIC [10]: 4 µM (≈ 9.46 µg/mL)
- MIC [11]: 8 µM (≈ 18.9 µg/mL)
- MIC [12]: 15 µM (≈ 35.5 µg/mL)
Compound: CC[C@H](C)[C@H](NC(=O)CN)C(=O)NCC(=O)N[C@@H](CCCCN)C(=O)N[C@@H](C)C(=O)N[C@@H](CC(C)C)C(=O)N[C@@H](CCCCN)C(=O)N[C@@H](CCCCN)C(=O)N[C@@H](C)C(=O)N[C@@H](CCCCN)C(=O)N[C@@H](CCCCN)C(=O)NCC(=O)N[C@H](C(=O)NCC(=O)N[C@@H](C)C(=O)N[C@H](C(=O)N[C@@H](CC(C)C)C(=O)N[C@@H](CCCCN)C(=O)N[C@H](C(=O)N[C@@H](CC(C)C)C(=O)N[C@H](C(=O)N[C@H](C(=O)NCC(=O)N[C@@H](CC(C)C)C(=O)O)[C@@H](C)O)[C@@H](C)O)C(C)C)C(C)C)[C@@H](C)CC [GIGKALKKAKKGIGAVLKVLTTGL]

- MIC [7]: 30 µM (≈ 49.7 µg/mL)
- MIC [10]: > 30 µM
- MIC [13]: > 30 µM
- MIC [14]: > 30 µM
- MIC [11]: > 30 µM
- MIC [15]: > 30 µM
Compound: CC(C)C[C@H](NC(=O)[C@H](CCCN=C(N)N)NC(=O)[C@H](CCCN=C(N)N)NC(=O)[C@H](C)NC(=O)[C@H](Cc1c[nH]c2ccccc12)NC(=O)CNC(=O)[C@H](CCCN=C(N)N)NC(=O)[C@@H](N)CCCN=C(N)N)C(=O)N[C@@H](C)C(=O)N[C@@H](Cc1ccccc1)C(=O)NCC(=O)N[C@@H](CCCN=C(N)N)C(=O)N[C@@H](CCCN=C(N)N)C(N)=O [RRGWARRLAFGRR]

- MIC [7]: 30 µM (≈ 54.3 µg/mL)
- MIC [10]: > 30 µM
- MIC [13]: > 30 µM
- MIC [14]: > 30 µM
- MIC [11]: > 30 µM
- MIC [15]: 14.8 µM and 30 µM
Compound: CC(C)C[C@H](NC(=O)[C@H](C)NC(=O)[C@H](Cc1c[nH]c2ccccc12)NC(=O)CNC(=O)[C@H](CCCN=C(N)N)NC(=O)[C@@H](N)CCCN=C(N)N)C(=O)N[C@@H](CCCN=C(N)N)C(=O)N1CCC[C@H]1C(=O)N[C@H](C(=O)N[C@@H](CC(C)C)C(=O)N[C@@H](C)C(=O)N[C@@H](Cc1ccccc1)C(=O)NCC(=O)N[C@@H](CCCN=C(N)N)C(=O)N[C@@H](CCCN=C(N)N)C(N)=O)C(C)C [RRGWALRPVLAFGRR]

- MIC [7]: 2.83 µM (≈ 5.67 µg/mL)
- MIC (Pseudomonas aeruginosa): 11.3 µM (≈ 22.7 µg/mL)
- MIC [8]: 11.3 µM (≈ 22.7 µg/mL)
- MIC (Escherichia coli): 64 µM (≈ 128 µg/mL)
- MIC [10]: 22.6 µM (≈ 45.4 µg/mL)
- MIC [13]: 4 µM (≈ 8.02 µg/mL)
- MIC [14]: 1.41 µM (≈ 2.84 µg/mL)
- MIC (Acinetobacter baumannii): ≥ 64 µM
- MIC (Staphylococcus aureus): 16 µM (≈ 32.1 µg/mL)
- MIC (Klebsiella pneumoniae): 8 µM (≈ 16 µg/mL)
Compound: CC[C@H](C)[C@H](NC(=O)[C@H](CCCCN)NC(=O)[C@H](CC(C)C)NC(=O)[C@H](C)NC(=O)[C@H](CCCCN)NC(=O)[C@H](CC(C)C)NC(=O)[C@H](C)NC(=O)CNC(=O)[C@H](CCCCN)NC(=O)[C@H](C)NC(=O)[C@@H](NC(=O)[C@@H](N)CCCCN)[C@@H](C)CC)C(=O)N[C@@H](C)C(=O)N[C@@H](CCCCN)C(=O)NCC(=O)N[C@@H](C)C(=O)N[C@@H](CC(C)C)C(=O)N[C@@H](CCCCN)C(=O)N[C@@H](C)C(=O)N[C@@H](CC(C)C)C(N)=O [KIAKGALKALKIAKGALKAL]

- MIC (Escherichia coli): 15.3 µM (≈ 32 µg/mL)
- MIC (Bacillus cereus): ≥ 61.3 µM
- MIC (Staphylococcus aureus): > 123 µM
Compound: CC(C)C[C@H](NC(=O)[C@@H](N)Cc1ccccc1)C(=O)NCC(=O)NCC(=O)N[C@H](C(=O)N[C@@H](Cc1ccccc1)C(=O)N[C@@H](CCCCN)C(=O)N[C@@H](CCCCN)C(=O)N[C@@H](C)C(=O)N[C@@H](CO)C(=O)N[C@@H](CCCCN)C(=O)N[C@H](C(=O)N[C@@H](Cc1ccccc1)C(=O)NCC(=O)N[C@@H](C)C(=O)N[C@H](C(=O)N[C@@H](Cc1ccccc1)C(=O)NCC(=O)N[C@@H](CCCCN)C(=O)N[C@H](C(=O)O)C(C)C)C(C)C)C(C)C)C(C)C [FLGGVFKKASKVFGAVFGKV]

- MIC [1]: 2 µM (≈ 4.67 µg/mL)
- MIC [2]: 2 µM (≈ 4.67 µg/mL)
- MIC [3]: 2 µM (≈ 4.67 µg/mL)
- MIC [4]: 2 µM (≈ 4.67 µg/mL)
- MIC [5]: 2 µM (≈ 4.67 µg/mL)
- MIC [6]: 4 µM (≈ 9.34 µg/mL)
Compound: C[C@@H](O)[C@H](NC(=O)[C@H](CCCCN)NC(=O)[C@H](Cc1c[nH]c2ccccc12)NC(=O)[C@H](Cc1c[nH]c2ccccc12)NC(=O)[C@@H](NC(=O)[C@H](CCCCN)NC(=O)[C@@H](N)CCCCN)[C@@H](C)O)C(=O)N[C@@H](Cc1c[nH]c2ccccc12)C(=O)N[C@@H](Cc1c[nH]c2ccccc12)C(=O)N[C@H](C(=O)N[C@@H](CCCCN)C(=O)N[C@@H](Cc1c[nH]c2ccccc12)C(=O)N[C@@H](CO)C(=O)N[C@@H](CCC(N)=O)C(=O)N1CCC[C@H]1C(=O)N[C@@H](CCCCN)C(=O)N[C@@H](CCCCN)C(=O)O)[C@@H](C)O [KKTWWKTWWTKWSQPKK]

- MIC [16]: 4.39 µM (≈ 8.79 µg/mL)
- MIC (Escherichia coli): 25 µM (≈ 50.1 µg/mL)
- MIC [17]: 2.19 µM (≈ 4.4 µg/mL)
- MIC [10]: 4.39 µM (≈ 8.79 µg/mL)
- MIC [13]: 2.19 µM (≈ 4.4 µg/mL)
- MIC (Staphylococcus aureus): 50 µM (≈ 100 µg/mL)
Compound: CC[C@H](C)[C@H](NC(=O)CN)C(=O)N[C@@H](CC(C)C)C(=O)N[C@@H](CO)C(=O)NCC(=O)N[C@H](C(=O)N[C@@H](CC(C)C)C(=O)NCC(=O)N[C@@H](CCSC)C(=O)NCC(=O)N[C@@H](CCCCN)C(=O)N[C@@H](CCCCN)C(=O)N[C@H](C(=O)N[C@H](C(=O)N[C@H]1CSSC[C@@H](C(=O)O)NC(=O)[C@H](CC(C)C)NC(=O)CNC(=O)[C@H](CO)NC(=O)[C@H](CC(C)C)NC(=O)CNC1=O)C(C)C)[C@@H](C)CC)C(C)C [GILSGVLGMGKKIVCGLSGLC]

- MIC (Escherichia coli): > 119 µM
- MIC (Bacillus cereus): ≥ 119 µM
Compound: CC[C@H](C)[C@H](NC(=O)[C@@H](NC(=O)[C@H](CC(C)C)NC(=O)[C@H](C)NC(=O)[C@@H]1CCCN1C(=O)CNC(=O)[C@H](Cc1ccc(O)cc1)NC(=O)[C@@H](N)CCCCN)C(C)C)C(=O)N[C@@H](C)C(=O)N[C@H](C(=O)N[C@@H](CCCCN)C(=O)N[C@@H](CCCCN)C(=O)N[C@@H](CO)C(=O)N[C@@H](CS)C(=O)N[C@@H](CO)C(=O)N[C@@H](CC(C)C)C(=O)N[C@H](C(=O)N[C@@H](Cc1ccccc1)C(=O)N[C@@H](CCCN=C(N)N)C(=O)N[C@@H](C)C(=O)O)[C@@H](C)O)C(C)C [KYGPALVIAVKKSCSLTFRA]

From DBAASP
